Test results as given in patent US9889146B2, “Benzoxaborole compounds and uses thereof” (priority 2012, dated 2018).
Converted amounts (≈) assume the structure as drawn. Read-outs that look alike come from different tables or passages of the source.

Columns and labels:
Assay type in all cases: cell-based
P. aeruginosa = assay: In vitro activity against P. aeruginosa clinical isolates
Protocol: GSK2251052 was tested for activity against P. aeruginosa, and its activity was compared to other antibiotics of known activity. The results are shown below in Tables 2a and 2b. Of 2,008 clinical isolates tested (from 2009-2010 subjects, of which 40% were from North America) greater than 90% were susceptible to GSK2251052 based on a potential susceptible breakpoint of ≦4 μg/mL.

E. coli ATCC 25922 = assay: Spontaneous frequency of resistance; conditions: 24 h
Protocol: (§1) Spontaneous Resistance Frequency was determined in vitro for GSK2251052 and the resistance mutants in E. coli ATCC 25922, K. pneumoniae ATCC 13883, and P. aeruginosa ATCC 27853 strains were characterized. GSK2251052 was prepared as described in U.S. Pat. No. 7,816,344 (the entire contents of which are hereby incorporated by reference herein). LB broth, Mueller Hinton II broth (adjusted), and Difco noble agar were obtained from Becton Dickinson (Cockeysville, Md., USA). M9 minimal broth containing 1×M9 salt, 0.5 μg/ML thiamine, 1 mM MgSO4, 0.1 mM CaCl2, 2% glucose, was obtained from Teknova (Hollister, Calif., USA). Antibacterial agents ciprofloxacin, ceftazidime, chloramphenicol, gentamycin, kanamycin, polymixin B, tobramycin and trimethoprim, and amino acids were obtained from Sigma Chemicals (St. Louis, Mo., USA). Strains were obtained from ATCC (Manassas, Va., USA).
(§2) Selection of resistance to GSK2251052 was attempted by spreading various amounts of bacteria onto MHBII noble agar plates containing 4×MIC (minimum inhibitory concentration) or 10×MIC of GSK2251052. Colonies were counted after 24 hours and 48 hours incubation at 37° C. The resistance of these colonies was confirmed by their ability to grow on plates containing GSK2251052 at either 4× or 10×MIC. Frequency of resistance was determined by dividing the number of resistant mutants by the total number of cells plated as determined by plating dilutions of the overnight culture on LB plates.

K. pneumoniae ATCC 13883 = assay: Spontaneous frequency of resistance; conditions: 24 h
Protocol: as §1, §2

P. aeruginosa ATCC 27853 = assay: Spontaneous frequency of resistance; conditions: 24 h
Protocol: as §1, §2

[1] = system: K. pneumoniae ATCC 13883 wild type and mutants; assay: MIC in M9 minimal media; conditions: Klebsiella pneumoniae, read-out: MICs in M9 minimal media
Protocol: as §1
(§3) Susceptibility tests were performed following the recommendations for aerobic bacteria (M7-A7) from the Clinical and Laboratories Standards Institute (CLSI).
(§4) The aminoacyl-tRNA synthetase enzyme, LeuRS, ensures the correct amino acid, leucine, is attached to tRNA^Leu. The LeuRS synthetic active site is capable of aminoacylating tRNA^Leu with amino acids structural similar to leucine (norvaline, norleucine, isoleucine and methionine). These mischarged tRNA^Leu are hydrolyzed by the editing domain, thus preventing the deleterious incorporation of incorrect amino acids into the growing polypeptide. The laboratory generated mutants were further tested for their ability to grow in defined media with exogenously added amino acids. Norvaline and norleucine, structurally similar to leucine, were tested in M9 minimal media. […]

[2] = system: P. aeruginosa ATCC 27853 wild type and mutants; assay: MIC in M9 minimal media; conditions: Pseudomonas aeruginosa, read-out: MICs in M9 minimal media
Protocol: as §1, §3, §4

[3] = system: E. coli ATCC 25922 wild type and mutants; assay: MIC in M9 minimal media; conditions: Escherichia coli, read-out: MICs in M9 minimal media
Protocol: as §1, §3, §4

[4] = system: Escherichia coli 1161435 parent and mutant strains B4, B26 and B35; assay: Sensitivity to leucine analogs in MH and M9 media
S. marcescens (AmpC) = assay: microbe, parasite or virus in culture; conditions: Serratia marcescens
Proteus mirabilis (WT) = assay: microbe, parasite or virus in culture
E. coli (ESBL) = assay: microbe, parasite or virus in culture; conditions: Escherichia coli
[5] = system: Enterobacter aerogenes (AmpC); assay: microbe, parasite or virus in culture; conditions: Klebsiella aerogenes
Klebsiella spp. (KPC) = assay: microbe, parasite or virus in culture; conditions: Klebsiella
Klebsiella spp. (WT) = assay: microbe, parasite or virus in culture
Enterobacteriaceae = assay: organism not typed
Proteus vulgaris (WT) = assay: microbe, parasite or virus in culture
[6] = system: Enterobacter cloacae (AmpC); assay: microbe, parasite or virus in culture; conditions: Enterobacter cloacae
[7] = system: Enterobacter cloacae (WT); assay: microbe, parasite or virus in culture; conditions: 202 isolates, read-out: MIC90
E. coli (WT) = assay: microbe, parasite or virus in culture; conditions: for MIC90: Escherichia coli
[8] = system: Citrobacter freundii (AmpC); assay: microbe, parasite or virus in culture; conditions: Citrobacter freundii
[9] = system: Morganella morganii (AmpC); assay: microbe, parasite or virus in culture; conditions: Morganella morganii
Klebsiella spp. (ESBL) = assay: microbe, parasite or virus in culture; conditions: Klebsiella
Providencia spp.(all) = assay: microbe, parasite or virus in culture
[10] = system: Enterobacter aerogenes (WT); assay: microbe, parasite or virus in culture; conditions: for MIC90: Klebsiella aerogenes
[11] = P. aeruginosa, 2,008 clinical isolates, GSK2251052 based on potential susceptible breakpoint of ≦4 μg/mL
[12] = Proteus mirabilis (WT), 235 isolates, read-out: MIC90
[13] = Klebsiella spp. (WT), 159 isolates, read-out: MIC90
[14] = Enterobacteriaceae, 2029 isolates, read-out: MIC90
[15] = Proteus vulgaris (WT), 41 isolates, read-out: MIC90
[16] = E. coli (WT), 214 isolates, read-out: MIC90
[17] = Providencia spp.(all), 68 isolates, read-out: MIC90
[18] = Enterobacter aerogenes (WT), 199 isolates, read-out: MIC90

Compound: C[C@@H](O)[C@H]1C(=O)N2C(C(=O)O)=C(S[C@@H]3CN[C@H](C(=O)N(C)C)C3)[C@H](C)[C@H]12 [Meropenem]
- % susceptible (P. aeruginosa; [11]): 79.3%
- Frequency of Resistance (E. coli ATCC 25922; 4 X MIC): <4 × 10^−9
- Frequency of Resistance (E. coli ATCC 25922; 10 X MIC): <4 × 10^−9
- Frequency of Resistance (K. pneumoniae ATCC 13883; 4 X MIC): <3 × 10^−9
- Frequency of Resistance (K. pneumoniae ATCC 13883; 10 X MIC): <3 × 10^−9
- Frequency of Resistance (P. aeruginosa ATCC 27853; 4 X MIC): 7 × 10^−7
- Frequency of Resistance (P. aeruginosa ATCC 27853; 10 X MIC): <1 × 10^−9

Compound: CCCC[C@H](N)C(=O)O [Norleucine, L-Norleucine]
- MIC ([1]; ATCC13883, K 104(leuRS D345Y)): 16 µg/mL (≈ 122 µM)
- MIC ([1]; ATCC13883, K 105(leuRS G229R)): 32 µg/mL (≈ 244 µM)
- MIC ([1]; ATCC13883, K 107(leuRS S227F)): 64 µg/mL (≈ 488 µM)
- MIC ([1]; ATCC13883, K 108(leuRS T248P)): 64 µg/mL (≈ 488 µM)
- MIC ([1]; ATCC13883, K 110(leuRS V338L)): > 64 µg/mL
- MIC ([1]; ATCC13883, Klebsiella pneumoniae ATCC13883): 32 µg/mL (≈ 244 µM)
- MIC ([2]; ATCC27853, P 101 (leuRS T256P)): > 64 µg/mL
- MIC ([2]; ATCC27853, P 106 (leuRS V342M)): > 64 µg/mL
- MIC ([2]; ATCC27853, P 108 (leuRS T252P)): > 64 µg/mL
- MIC ([2]; ATCC27853, P. aeruginosa ATCC27853): > 64 µg/mL
- MIC ([3]; ATCC25922, E 101(leuRS Y246H)): 2 µg/mL (≈ 15.2 µM)
- MIC ([3]; ATCC25922, E 102(leuRS D345G)): 4 µg/mL (≈ 30.5 µM)
- MIC ([3]; ATCC25922, E 107(leuRS G229S)): 4 µg/mL (≈ 30.5 µM)
- MIC ([3]; ATCC25922, E. coli ATCC25922): 4 µg/mL (≈ 30.5 µM)
- MIC (sensitivity to leucine analogs) ([4]; 1161435 Parent, M9): 32 µg/mL
- MIC (sensitivity to leucine analogs) ([4]; 1161435 Parent, MH): > 128 µg/mL
- MIC (sensitivity to leucine analogs) ([4]; B4 (P339L), M9): 16 µg/mL
- MIC (sensitivity to leucine analogs) ([4]; B4 (P339L), MH): > 128 µg/mL
- MIC (sensitivity to leucine analogs) ([4]; B26 (R334H), M9): 8 µg/mL
- MIC (sensitivity to leucine analogs) ([4]; B26 (R334H), MH): > 128 µg/mL
- MIC (sensitivity to leucine analogs) ([4]; B35 (D251N), M9): 16 µg/mL
- MIC (sensitivity to leucine analogs) ([4]; B35 (D251N), MH): > 128 µg/mL
- sensitivity of the mutants ([4]; mutant strains in M9 minimal media): some sensitivity

Compound: C[C@@H](O)[C@H]1C(=O)N2C(C(=O)O)=C(SCCN=CN)C[C@H]12 [Imipenem]
- MIC90 (S. marcescens (AmpC)): 2 µg/mL (≈ 6.68 µM)
- susceptibility category of MIC90 (Proteus mirabilis (WT)): ***4
- MIC90 (Proteus mirabilis (WT); Proteus mirabilis): 4 µg/mL (≈ 13.4 µM)
- MIC90 (E. coli (ESBL)): 0.5 µg/mL (≈ 1.67 µM)
- MIC90 [5]: 2 µg/mL (≈ 6.68 µM)
- MIC90 (Klebsiella spp. (KPC)): 64 µg/mL (≈ 214 µM)
- susceptibility category of MIC90 (Klebsiella spp. (WT)): *0.25
- MIC90 (Klebsiella spp. (WT); Klebsiella): 0.25 µg/mL (≈ 0.835 µM)
- MIC90 (Enterobacteriaceae): 2 µg/mL (≈ 6.68 µM)
- susceptibility category of MIC90 (Enterobacteriaceae): **2
- susceptibility category of MIC90 (Proteus vulgaris (WT)): ***4
- MIC90 (Proteus vulgaris (WT); Proteus vulgaris): 4 µg/mL (≈ 13.4 µM)
- MIC90 [6]: 1 µg/mL (≈ 3.34 µM)
- MIC90 [7]: 1 µg/mL (≈ 3.34 µM)
- susceptibility category of MIC90 (E. coli (WT)): *0.25
- MIC90 (E. coli (WT)): 0.25 µg/mL (≈ 0.835 µM)
- MIC90 [8]: 1 µg/mL (≈ 3.34 µM)
- MIC90 [9]: 4 µg/mL (≈ 13.4 µM)
- MIC90 (Klebsiella spp. (ESBL)): 0.5 µg/mL (≈ 1.67 µM)
- susceptibility category of MIC90 (Providencia spp.(all)): **2
- MIC90 (Providencia spp.(all); Providencia): 2 µg/mL (≈ 6.68 µM)
- % susceptible (P. aeruginosa): 72.9%
- susceptibility category of MIC90 [10]: **2
- MIC90 [10]: 2 µg/mL (≈ 6.68 µM)

Compound: CO/N=C(\C(=O)N[C@@H]1C(=O)N2C(C(=O)[O-])=C(C[N+]3(C)CCCC3)CS[C@H]12)c1csc(N)n1 [Cefepime]
- MIC90 (S. marcescens (AmpC)): 8 µg/mL (≈ 16.6 µM)
- MIC90 (Proteus mirabilis (WT); [12]): ≤ 1 µg/mL
- MIC90 (E. coli (ESBL)): > 32 µg/mL
- MIC90 [5]: 8 µg/mL (≈ 16.6 µM)
- MIC90 (Klebsiella spp. (KPC)): > 32 µg/mL
- MIC90 (Klebsiella spp. (WT); [13]): ≤ 1 µg/mL
- MIC90 (Enterobacteriaceae; [14]): 4 µg/mL (≈ 8.32 µM)
- MIC90 (Proteus vulgaris (WT); [15]): ≤ 1 µg/mL
- MIC90 (E. coli (WT); [16]): ≤ 1 µg/mL
- MIC90 [8]: 16 µg/mL (≈ 33.3 µM)
- MIC90 [9]: > 32 µg/mL
- MIC90 (Klebsiella spp. (ESBL)): > 32 µg/mL
- MIC90 (Providencia spp.(all); [17]): > 32 µg/mL
- % susceptible (P. aeruginosa; [11]): 75.3%
- MIC90 [10, 18]: ≤ 1 µg/mL

Compound: CC1(C)S[C@@H]2[C@H](NC(=O)[C@H](N)c3ccccc3)C(=O)N2[C@H]1C(=O)O [Ampicillin]
- MIC90 (S. marcescens (AmpC)): > 64 µg/mL
- MIC90 (Proteus mirabilis (WT); [12]): > 64 µg/mL
- MIC90 (E. coli (ESBL)): > 64 µg/mL
- MIC90 [5]: > 64 µg/mL
- MIC90 (Klebsiella spp. (KPC)): > 64 µg/mL
- MIC90 (Klebsiella spp. (WT); [13]): > 64 µg/mL
- MIC90 (Enterobacteriaceae; [14]): > 64 µg/mL
- MIC90 (Proteus vulgaris (WT); [15]): > 64 µg/mL
- MIC90 [6]: > 64 µg/mL
- MIC90 [7]: > 64 µg/mL
- MIC90 (E. coli (WT); [16]): > 64 µg/mL
- MIC90 [8]: > 64 µg/mL
- MIC90 [9]: > 64 µg/mL
- MIC90 (Klebsiella spp. (ESBL)): > 64 µg/mL
- MIC90 (Providencia spp.(all); [17]): > 64 µg/mL
- MIC90 [10, 18]: > 64 µg/mL
